Source: PubChem BioAssay (NCI)
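In this assay, cells in 96-well plates receive the compound at five concentrations for 48 hours. Endpoints are linearly interpolated between the surrounding concentrations. GI50 marks 50% less growth. At the TGI there is no net growth.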

These compounds were tested on SK-MEL-28 melanoma (assay: growth of human tumour cells (NCI), 48 h).

| SMILES | GI50 [µM] | TGI [µM] |
| --- | --- | --- |
| CC(C)=[CH][Sb]([Br])([CH]=C(C)C)([CH]=C(C)C)[CH]=C(C)C | 11.3 | > 100 |
| CCOC(=O)[C@H]1Nc2ccc(C)cc2C2c3ccccc3CC21 (stereo not given in full) | – | > 100 |
| COc1cc([N+](=O)[O-])ccc1NC(=O)C(F)(F)F | – | > 100 |
| COc1cc(-c2c(C#N)c(N)n3c(nc4ccccc43)c2C#N)cc(Br)c1OC | > 100 | > 100 |
| N#CCCN(CCC#N)c1ccc(/C=C2\N=C(CN3C(=O)c4ccccc4C3=O)OC2=O)cc1 | – | > 100 |
| O=C(O)C1C(C(=O)O)C(C(=O)O)C1C(=O)O (stereo not given) | – | > 100 |
| COc1ccc(C(=O)O)c(Cc2cccc3ccccc23)c1 | – | > 100 |
| CC#CC(=O)Nc1ccccc1CC(c1c[nH]c2ccccc12)c1c[nH]c2ccccc12 | – | 29.9 |
| CN1C(NC(=O)c2ccc(Cl)nc2)=NS(=O)(=O)c2cc(Cl)ccc21 | > 100 | > 100 |
| C[C@]12CC[C@@H]3c4ccc(Oc5nc(N6CC6)nc(N6CC6)n5)cc4CC[C@H]3[C@@H]1CCC2=O | 6.01 | 42.8 |
| N#Cc1cnsc1 | – | > 100 |
| CCOC(=O)NC(=O)c1cn(CCCOC(=O)NCCCCCCNC(=O)OCCCn2c(=O)c(C(=O)NC(=O)OCC)cn(C)c2=O)c(=O)n(C)c1=O | – | > 100 |
| COc1ccc2cc(C(=O)/C=C/c3cccc(OC)c3OC)ccc2c1 | 19.4 | 44.5 |
| CCCCn1c(-c2ccc(C(=O)O/N=C(\N)c3ccc(OC)cc3)cc2)nc(-c2ccccc2)c1-c1ccccc1 | 2.75 | > 100 |
| CC(C)=CC(=O)N1CCN(C(=O)C=C(C)C)CC1 | – | > 100 |
| CCCCC/C=C/C/C=C/CCCCCCCC1=NC(C)(C)CN1C(C)C | 1.7 | 3.07 |
| C[C@]12CC[C@@H]3c4ccc(O)cc4CC[C@H]3[C@@H]1CC[C@@H]2NS(=O)(=O)c1ccc(C(F)(F)F)cc1 | 1.68 | 3.08 |
| CCc1cccc(C)c1NC(C)=O | – | > 100 |
| O=C(CC(=O)N1N=C(c2ccccc2)C(N=Nc2ccc(Cl)cc2)C1=O)Nc1ccccc1Cl (stereo not given) | – | 52.4 |

What follows are compounds tested on COLO 205 colon (assay: growth of human tumour cells (NCI), 48 h).

| SMILES | GI50 [µM] | TGI [µM] |
| --- | --- | --- |
| CC(C)(C)OC(=O)N(CCCN(CCn1c2c(c3ccccc3c1=O)C(=O)c1ccccc1-2)C(=O)OC(C)(C)C)CCn1c2c(c3ccccc3c1=O)C(=O)c1ccccc1-2 | > 50 | > 50 |
| CCCCCCCCCCCCCCCCOP(=O)(O)Oc1ccc(/C=C\c2ccc(OP(=O)(O)OCCCCCCCCCCCCCCCC)cc2)cc1 | – | 33.6 |
| O=c1[nH]c(=O)n(C2CC(O)C(CS)O2)cc1F (stereo not given) | – | > 100 |
| CNC1C(=O)C(C)C(O)(C(CC(C)C(O)/C=C/C=C/CNC(=O)C(C)(C)C(O)\C(C)=C/C=C\C=C\Cc2cnc(C)o2)OC)C12C(=O)OC2COC (stereo not given) (tested in a mixture with another compound) | – | 20.2 |
| CCN(CC)C(=O)C/C(C)=N/NC(=O)c1ccncc1 | – | > 100 |
| COC(=O)C(=O)C(C(=O)C(=O)Nc1ccc(C)cc1C)c1nc2ccccc2[nH]c1=O (stereo not given) | – | > 100 |
| O=C(O)C(Sc1ccc(Cl)cc1)Sc1ccc(Cl)cc1 | – | 59 |
| CC[C@H](C)[C@H](NC(=O)[C@H]1CCCCN1C)C(=O)N(C)[C@H](CCc1nc(C(=O)N[C@@H](Cc2ccccc2)C[C@H](C)C(=O)OC)cs1)C(C)C | 0.167 | 0.916 |
| Nc1c(-c2ccc(Br)cc2)[n+]([O-])c2ccccc2[n+]1[O-] | – | > 100 |
| C#CC[C@]12CC(=O)CC[C@H]1CC(=O)C2 | – | > 100 |
| N#CCCN(c1ccc(/C=C2\N=C(c3ccc(Cl)cc3)OC2=O)cc1)S(=O)(=O)c1ccccc1 | – | > 100 |
| COc1ccc(C2CC(=O)c3c(OC)cc(OC)cc3O2)cc1 (stereo not given) | > 100 | > 100 |
| COC(=O)C1=C(c2ccc3c(c2)OCO3)O[C@H](c2ccc3c(c2)OCO3)[C@H]1COC(C)=O | – | 28.9 |
| CC(C)=[CH][Sb]([Br])([CH]=C(C)C)([CH]=C(C)C)[CH]=C(C)C | 1.93 | 5.89 |
| CCOC(=O)[C@H]1Nc2ccc(C)cc2C2c3ccccc3CC21 (stereo not given in full) | – | > 100 |
| COc1cc([N+](=O)[O-])ccc1NC(=O)C(F)(F)F | – | > 100 |
| COc1cc(-c2c(C#N)c(N)n3c(nc4ccccc43)c2C#N)cc(Br)c1OC | > 100 | > 100 |
| CSc1nc(NC2OC(COC(C)=O)C(OC(C)=O)C(OC(C)=O)C2OC(C)=O)c2c(OC(C)=O)c(C)c(=O)oc2n1 (stereo not given) | – | > 100 |
| O=C(O)C1C(C(=O)O)C(C(=O)O)C1C(=O)O (stereo not given) | – | > 100 |
| COc1ccc(C(=O)O)c(Cc2cccc3ccccc23)c1 | – | > 100 |
| CC#CC(=O)Nc1ccccc1CC(c1c[nH]c2ccccc12)c1c[nH]c2ccccc12 | – | 29.7 |
| CN1C(NC(=O)c2ccc(Cl)nc2)=NS(=O)(=O)c2cc(Cl)ccc21 | > 100 | > 100 |
| C[C@]12CC[C@@H]3c4ccc(Oc5nc(N6CC6)nc(N6CC6)n5)cc4CC[C@H]3[C@@H]1CCC2=O | 3.35 | 16.2 |
| N#Cc1cnsc1 | – | > 100 |
| CCOC(=O)NC(=O)c1cn(CCCOC(=O)NCCCCCCNC(=O)OCCCn2c(=O)c(C(=O)NC(=O)OCC)cn(C)c2=O)c(=O)n(C)c1=O | – | > 100 |
| COc1ccc2cc(C(=O)/C=C/c3cccc(OC)c3OC)ccc2c1 | 20.4 | 78.5 |
| CCCCC/C=C/C/C=C/CCCCCCCC1=NC(C)(C)CN1C(C)C | 1.47 | 2.79 |
| C[C@]12CC[C@@H]3c4ccc(O)cc4CC[C@H]3[C@@H]1CC[C@@H]2NS(=O)(=O)c1ccc(C(F)(F)F)cc1 | 1.83 | 3.38 |
| O=C(CC(=O)N1N=C(c2ccccc2)C(N=Nc2ccc(Cl)cc2)C1=O)Nc1ccccc1Cl (stereo not given) | – | > 100 |

These compounds were tested on NCI-H522 lung (assay: growth of human tumour cells (NCI), 48 h).

| SMILES | GI50 [µM] | TGI [µM] |
| --- | --- | --- |
| CC(C)(C)OC(=O)N(CCCN(CCn1c2c(c3ccccc3c1=O)C(=O)c1ccccc1-2)C(=O)OC(C)(C)C)CCn1c2c(c3ccccc3c1=O)C(=O)c1ccccc1-2 | 47.6 | > 50 |
| CCCCCCCCCCCCCCCCOP(=O)(O)Oc1ccc(/C=C\c2ccc(OP(=O)(O)OCCCCCCCCCCCCCCCC)cc2)cc1 | – | > 100 |
| O=c1[nH]c(=O)n(C2CC(O)C(CS)O2)cc1F (stereo not given) | – | > 100 |
| CNC1C(=O)C(C)C(O)(C(CC(C)C(O)/C=C/C=C/CNC(=O)C(C)(C)C(O)\C(C)=C/C=C\C=C\Cc2cnc(C)o2)OC)C12C(=O)OC2COC (stereo not given) (tested in a mixture with another compound) | – | 21.2 |
| CCN(CC)C(=O)C/C(C)=N/NC(=O)c1ccncc1 | – | > 100 |
| Cc1c2c(nn1-c1ccc(S(=O)(=O)/N=C3\SCC(=O)N3C(=O)c3ccccc3)cc1)-c1ccccc1CC2 | 96.2 | > 100 |
| CN(C)C(=S)/N=c1\ss/c(=N\C(=S)N(C)C)n1-c1ccc2c(c1)OCO2 | – | > 100 |
| COC(=O)C(=O)C(C(=O)C(=O)Nc1ccc(C)cc1C)c1nc2ccccc2[nH]c1=O (stereo not given) | – | 93 |
| O=C(O)C(Sc1ccc(Cl)cc1)Sc1ccc(Cl)cc1 | – | > 100 |
| CC[C@H](C)[C@H](NC(=O)[C@H]1CCCCN1C)C(=O)N(C)[C@H](CCc1nc(C(=O)N[C@@H](Cc2ccccc2)C[C@H](C)C(=O)OC)cs1)C(C)C | 0.0446 | 0.143 |
| Nc1c(-c2ccc(Br)cc2)[n+]([O-])c2ccccc2[n+]1[O-] | – | > 100 |
| C#CC[C@]12CC(=O)CC[C@H]1CC(=O)C2 | – | > 100 |
| N#CCCN(c1ccc(/C=C2\N=C(c3ccc(Cl)cc3)OC2=O)cc1)S(=O)(=O)c1ccccc1 | – | > 100 |
| COc1ccc(C2CC(=O)c3c(OC)cc(OC)cc3O2)cc1 (stereo not given) | > 100 | > 100 |
| CC(C)=[CH][Sb]([Br])([CH]=C(C)C)([CH]=C(C)C)[CH]=C(C)C | 1.5 | 20.2 |
| CCOC(=O)[C@H]1Nc2ccc(C)cc2C2c3ccccc3CC21 (stereo not given in full) | – | > 100 |
| COc1cc([N+](=O)[O-])ccc1NC(=O)C(F)(F)F | – | > 100 |
| COc1cc(-c2c(C#N)c(N)n3c(nc4ccccc43)c2C#N)cc(Br)c1OC | 79.7 | > 100 |
| N#CCCN(CCC#N)c1ccc(/C=C2\N=C(CN3C(=O)c4ccccc4C3=O)OC2=O)cc1 | – | > 100 |
| O=C(O)C1C(C(=O)O)C(C(=O)O)C1C(=O)O (stereo not given) | – | > 100 |
| COc1ccc(C(=O)O)c(Cc2cccc3ccccc23)c1 | – | > 100 |
| CN1C(NC(=O)c2ccc(Cl)nc2)=NS(=O)(=O)c2cc(Cl)ccc21 | > 100 | > 100 |
| C[C@]12CC[C@@H]3c4ccc(Oc5nc(N6CC6)nc(N6CC6)n5)cc4CC[C@H]3[C@@H]1CCC2=O | 1.91 | 4.57 |
| CCOC(=O)NC(=O)c1cn(CCCOC(=O)NCCCCCCNC(=O)OCCCn2c(=O)c(C(=O)NC(=O)OCC)cn(C)c2=O)c(=O)n(C)c1=O | – | > 100 |
| COc1ccc2cc(C(=O)/C=C/c3cccc(OC)c3OC)ccc2c1 | 10.2 | 29.6 |
| CC(C)=CC(=O)N1CCN(C(=O)C=C(C)C)CC1 | – | > 100 |
| CCCCC/C=C/C/C=C/CCCCCCCC1=NC(C)(C)CN1C(C)C | 1.72 | 3.17 |
| C[C@]12CC[C@@H]3c4ccc(O)cc4CC[C@H]3[C@@H]1CC[C@@H]2NS(=O)(=O)c1ccc(C(F)(F)F)cc1 | 1.69 | 3.85 |
